{"source": "PubChem BioAssay AID2060910", "about": "(Molecular Pharmacology Branch, DTP, NCI, 2025);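 also: spheroids exposed to compound for 7 days before readout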;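 as to viability, T/C: 100% = DMSO vehicle control wells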", "tested_on": "242566-281-R-J2-PDC complex spheroid viability", "test": "Anticancer human tumor 242566-281-R-J2-PDC patient-derived pancreatic carcinoma cell line growth inhibition [RAS]", "conditions": "for IC50: curve of first compound; for viability, T/C: stronger effect = lower value", "outline": "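Tumour cells grown as complex spheroids with HUVEC endothelial cells and mesenchymal stem cells, treated with RAS pathway inhibitor combinations. Each agent spans half-log steps from near clinical Cmax, or 10 microM where Cmax is unknown.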", "data": [{"smiles": "O=C(c1ccc(F)c(F)c1Nc1ccc(I)cc1F)N1CC(O)([C@@H]2CCCCN2)C1", "note": "+ CCn1c(-c2cccnc2C(C)OC)c2c3cc(ccc31)N1CCOC(CC(NC(=O)C(C(C)C)N(C)C(=O)C3(F)CCN(C(=O)C#CC(C)(C)N(C)C)CC3)C(=O)N3CCCC(N3)C(=O)OCC(C)(C)C2)C1", "values": [{"measurement": "IC50", "setting": "second compound 0.000949 µM", "result": 96.3, "unit": "nM"}, {"measurement": "IC50", "setting": "second compound 0.003 µM", "result": 123, "unit": "nM"}, {"measurement": "IC50", "setting": "second compound 0.00949 µM", "result": 116, "unit": "nM"}, {"measurement": "IC50", "setting": "second compound 0.03 µM", "result": 119, "unit": "nM"}, {"measurement": "IC50", "setting": "second compound 0.0949 µM", "result": 90.7, "unit": "nM"}, {"measurement": "IC50", "setting": "second compound 0.3 µM", "result": 52.1, "unit": "nM"}, {"measurement": "viability, T/C", "setting": "second compound 0.000949 µM, first compound 0.00316 µM", "result": 92.3, "unit": "%"}, {"measurement": "viability, T/C", "setting": "second compound 0.000949 µM, first compound 0.01 µM", "result": 90.8, "unit": "%"}, {"measurement": "viability, T/C", "setting": "second compound 0.000949 µM, first compound 0.0316 µM", "result": 51.1, "unit": "%"}, {"measurement": "viability, T/C", "setting": "second compound 0.000949 µM, first compound 0.1 µM", "result": 53.2, "unit": "%"}, {"measurement": "viability, T/C", "setting": "second compound 0.000949 µM, first compound 0.316 µM", "result": 38.9, "unit": "%"}, {"measurement": "viability, T/C", "setting": "second compound 0.000949 µM, first compound 1 µM", "result": 19.5, "unit": "%"}, {"measurement": "viability, T/C", "setting": "second compound 0.003 µM, first compound 0.00316 µM", "result": 87.2, "unit": "%"}, {"measurement": "viability, T/C", "setting": "second compound 0.003 µM, first compound 0.01 µM", "result": 77.5, "unit": "%"}, {"measurement": "viability, T/C", "setting": "second compound 0.003 µM, first compound 0.0316 µM", "result": 65.7, "unit": "%"}, {"measurement": "viability, T/C", "setting": "second compound 0.003 µM, first compound 0.1 µM", "result": 52.9, "unit": "%"}, {"measurement": "viability, T/C", "setting": "second compound 0.003 µM, first compound 0.316 µM", "result": 38.7, "unit": "%"}, {"measurement": "viability, T/C", "setting": "second compound 0.003 µM, first compound 1 µM", "result": 18.9, "unit": "%"}, {"measurement": "viability, T/C", "setting": "second compound 0.00949 µM, first compound 0.00316 µM", "result": 101, "unit": "%"}, {"measurement": "viability, T/C", "setting": "second compound 0.00949 µM, first compound 0.01 µM", "result": 69, "unit": "%"}, {"measurement": "viability, T/C", "setting": "second compound 0.00949 µM, first compound 0.0316 µM", "result": 78.5, "unit": "%"}, {"measurement": "viability, T/C", "setting": "second compound 0.00949 µM, first compound 0.1 µM", "result": 51.1, "unit": "%"}, {"measurement": "viability, T/C", "setting": "second compound 0.00949 µM, first compound 0.316 µM", "result": 33.7, "unit": "%"}, {"measurement": "viability, T/C", "setting": "second compound 0.00949 µM, first compound 1 µM", "result": 21, "unit": "%"}, {"measurement": "viability, T/C", "setting": "second compound 0.03 µM, first compound 0.00316 µM", "result": 93.3, "unit": "%"}, {"measurement": "viability, T/C", "setting": "second compound 0.03 µM, first compound 0.01 µM", "result": 89.4, "unit": "%"}, {"measurement": "viability, T/C", "setting": "second compound 0.03 µM, first compound 0.0316 µM", "result": 76.9, "unit": "%"}, {"measurement": "viability, T/C", "setting": "second compound 0.03 µM, first compound 0.1 µM", "result": 54.9, "unit": "%"}, {"measurement": "viability, T/C", "setting": "second compound 0.03 µM, first compound 0.316 µM", "result": 29.3, "unit": "%"}, {"measurement": "viability, T/C", "setting": "second compound 0.03 µM, first compound 1 µM", "result": 22.4, "unit": "%"}, {"measurement": "viability, T/C", "setting": "second compound 0.0949 µM, first compound 0.00316 µM", "result": 97.9, "unit": "%"}, {"measurement": "viability, T/C", "setting": "second compound 0.0949 µM, first compound 0.01 µM", "result": 88.1, "unit": "%"}, {"measurement": "viability, T/C", "setting": "second compound 0.0949 µM, first compound 0.0316 µM", "result": 68, "unit": "%"}, {"measurement": "viability, T/C", "setting": "second compound 0.0949 µM, first compound 0.1 µM", "result": 52, "unit": "%"}, {"measurement": "viability, T/C", "setting": "second compound 0.0949 µM, first compound 0.316 µM", "result": 26.5, "unit": "%"}, {"measurement": "viability, T/C", "setting": "second compound 0.0949 µM, first compound 1 µM", "result": 22.1, "unit": "%"}, {"measurement": "viability, T/C", "setting": "second compound 0.3 µM, first compound 0.00316 µM", "result": 87, "unit": "%"}, {"measurement": "viability, T/C", "setting": "second compound 0.3 µM, first compound 0.01 µM", "result": 75.3, "unit": "%"}, {"measurement": "viability, T/C", "setting": "second compound 0.3 µM, first compound 0.0316 µM", "result": 60.6, "unit": "%"}, {"measurement": "viability, T/C", "setting": "second compound 0.3 µM, first compound 0.1 µM", "result": 36.9, "unit": "%"}, {"measurement": "viability, T/C", "setting": "second compound 0.3 µM, first compound 0.316 µM", "result": 24.2, "unit": "%"}, {"measurement": "viability, T/C", "setting": "second compound 0.3 µM, first compound 1 µM", "result": 15.8, "unit": "%"}]}]}
